{"source": "PubChem BioAssay AID2060489", "about": "(Molecular Pharmacology Branch, DTP, NCI, 2025)", "tested_on": "922993-354-T-J3-PDC complex spheroids, viability", "test": "Anticancer human tumor 922993-354-T-J3-PDC patient-derived endometrial carcinoma cell line growth inhibition [GQUAD]", "details": "for pIC50: curve of first compound; for viability, T/C: stronger effect = lower value", "procedure,_shortened": "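Multi-cell-type spheroids of tumor cells with HUVEC and mesenchymal stem cells, treated with drug combinations. Concentrations descend in half-log steps from near clinical Cmax, or from 10 microM where Cmax is unknown; viability read-out.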", "key": {"[1]": {"details": "second compound 0.0316 µM, first compound 0.0316 µM"}, "[2]": {"details": "second compound 0.0316 µM, first compound 0.1 µM"}, "[3]": {"details": "second compound 0.0316 µM, first compound 0.316 µM"}, "[4]": {"details": "second compound 0.0316 µM, first compound 1 µM"}, "[5]": {"details": "second compound 0.0316 µM, first compound 3.16 µM"}, "[6]": {"details": "second compound 0.0316 µM, first compound 10 µM"}, "[7]": {"details": "second compound 0.1 µM, first compound 0.0316 µM"}, "[8]": {"details": "second compound 0.1 µM, first compound 0.1 µM"}, "[9]": {"details": "second compound 0.1 µM, first compound 0.316 µM"}, "[10]": {"details": "second compound 0.1 µM, first compound 1 µM"}, "[11]": {"details": "second compound 0.1 µM, first compound 3.16 µM"}, "[12]": {"details": "second compound 0.1 µM, first compound 10 µM"}, "[13]": {"details": "second compound 0.316 µM, first compound 0.0316 µM"}, "[14]": {"details": "second compound 0.316 µM, first compound 0.1 µM"}, "[15]": {"details": "second compound 0.316 µM, first compound 0.316 µM"}, "[16]": {"details": "second compound 0.316 µM, first compound 1 µM"}, "[17]": {"details": "second compound 0.316 µM, first compound 3.16 µM"}, "[18]": {"details": "second compound 0.316 µM, first compound 10 µM"}, "[19]": {"details": "second compound 1 µM, first compound 0.0316 µM"}, "[20]": {"details": "second compound 1 µM, first compound 0.1 µM"}, "[21]": {"details": "second compound 1 µM, first compound 0.316 µM"}, "[22]": {"details": "second compound 1 µM, first compound 1 µM"}, "[23]": {"details": "second compound 1 µM, first compound 3.16 µM"}, "[24]": {"details": "second compound 1 µM, first compound 10 µM"}, "[25]": {"details": "second compound 3.16 µM, first compound 0.0316 µM"}, "[26]": {"details": "second compound 3.16 µM, first compound 0.1 µM"}, "[27]": {"details": "second compound 3.16 µM, first compound 0.316 µM"}, "[28]": {"details": "second compound 3.16 µM, first compound 1 µM"}, "[29]": {"details": "second compound 3.16 µM, first compound 3.16 µM"}, "[30]": {"details": "second compound 3.16 µM, first compound 10 µM"}, "[31]": {"details": "second compound 10 µM, first compound 0.0316 µM"}, "[32]": {"details": "second compound 10 µM, first compound 0.1 µM"}, "[33]": {"details": "second compound 10 µM, first compound 0.316 µM"}, "[34]": {"details": "second compound 10 µM, first compound 1 µM"}, "[35]": {"details": "second compound 10 µM, first compound 3.16 µM"}, "[36]": {"details": "second compound 10 µM, first compound 10 µM"}}, "note": "pIC50: −log10 of the molar value."}
{"compound": "Nc1ccn(C2OC(CO)C(O)C2(F)F)c(=O)n1", "note": "(centres undefined) + Cc1[nH]c2ccc(F)cc2c1-c1nc2c3cccnc3c3ncccc3c2[nH]1;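 note: spheroids exposed to compounds for seven days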;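 for viability, T/C: 100% = DMSO vehicle control viability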", "values": [{"measurement": "pIC50", "setting": "second compound 0.0316 µM", "value": "> 7.50"}, {"measurement": "pIC50", "setting": "second compound 0.1 µM", "value": "> 7.50"}, {"measurement": "pIC50", "setting": "second compound 0.316 µM", "value": "> 7.50"}, {"measurement": "pIC50", "setting": "second compound 1 µM", "value": "> 7.50"}, {"measurement": "pIC50", "setting": "second compound 3.16 µM", "value": "> 7.50"}, {"measurement": "pIC50", "setting": "second compound 10 µM", "value": "> 7.50"}, {"measurement": "viability, T/C", "setting": "[1]", "value": 25.1, "unit": "%"}, {"measurement": "viability, T/C", "setting": "[2]", "value": 27.1, "unit": "%"}, {"measurement": "viability, T/C", "setting": "[3]", "value": 25.2, "unit": "%"}, {"measurement": "viability, T/C", "setting": "[4]", "value": 18.3, "unit": "%"}, {"measurement": "viability, T/C", "setting": "[5]", "value": 22.5, "unit": "%"}, {"measurement": "viability, T/C", "setting": "[6]", "value": 21.7, "unit": "%"}, {"measurement": "viability, T/C", "setting": "[7]", "value": 25.6, "unit": "%"}, {"measurement": "viability, T/C", "setting": "[8]", "value": 23.2, "unit": "%"}, {"measurement": "viability, T/C", "setting": "[9]", "value": 23.9, "unit": "%"}, {"measurement": "viability, T/C", "setting": "[10]", "value": 21.1, "unit": "%"}, {"measurement": "viability, T/C", "setting": "[11]", "value": 23, "unit": "%"}, {"measurement": "viability, T/C", "setting": "[12]", "value": 22.9, "unit": "%"}, {"measurement": "viability, T/C", "setting": "[13]", "value": 25.1, "unit": "%"}, {"measurement": "viability, T/C", "setting": "[14]", "value": 23.4, "unit": "%"}, {"measurement": "viability, T/C", "setting": "[15]", "value": 24, "unit": "%"}, {"measurement": "viability, T/C", "setting": "[16]", "value": 19.2, "unit": "%"}, {"measurement": "viability, T/C", "setting": "[17]", "value": 22.7, "unit": "%"}, {"measurement": "viability, T/C", "setting": "[18]", "value": 22.1, "unit": "%"}, {"measurement": "viability, T/C", "setting": "[19]", "value": 22.4, "unit": "%"}, {"measurement": "viability, T/C", "setting": "[20]", "value": 25.7, "unit": "%"}, {"measurement": "viability, T/C", "setting": "[21]", "value": 20.1, "unit": "%"}, {"measurement": "viability, T/C", "setting": "[22]", "value": 26.4, "unit": "%"}, {"measurement": "viability, T/C", "setting": "[23]", "value": 24.2, "unit": "%"}, {"measurement": "viability, T/C", "setting": "[24]", "value": 21.7, "unit": "%"}, {"measurement": "viability, T/C", "setting": "[25]", "value": 22.6, "unit": "%"}, {"measurement": "viability, T/C", "setting": "[26]", "value": 29.2, "unit": "%"}, {"measurement": "viability, T/C", "setting": "[27]", "value": 23.3, "unit": "%"}, {"measurement": "viability, T/C", "setting": "[28]", "value": 20.4, "unit": "%"}, {"measurement": "viability, T/C", "setting": "[29]", "value": 27, "unit": "%"}, {"measurement": "viability, T/C", "setting": "[30]", "value": 18.3, "unit": "%"}, {"measurement": "viability, T/C", "setting": "[31]", "value": 27.6, "unit": "%"}, {"measurement": "viability, T/C", "setting": "[32]", "value": 22.3, "unit": "%"}, {"measurement": "viability, T/C", "setting": "[33]", "value": 27, "unit": "%"}, {"measurement": "viability, T/C", "setting": "[34]", "value": 23.4, "unit": "%"}, {"measurement": "viability, T/C", "setting": "[35]", "value": 26.3, "unit": "%"}, {"measurement": "viability, T/C", "setting": "[36]", "value": 26.3, "unit": "%"}]}
{"compound": "O=c1[nH]cc(F)c(=O)[nH]1", "note": "+ Cc1[nH]c2ccc(F)cc2c1-c1nc2c3cccnc3c3ncccc3c2[nH]1", "values": [{"measurement": "pIC50", "setting": "second compound 0.0316 µM", "value": "< 5.00"}, {"measurement": "pIC50", "setting": "second compound 0.1 µM", "value": "< 5.00"}, {"measurement": "pIC50", "setting": "second compound 0.316 µM", "value": "< 5.00"}, {"measurement": "pIC50", "setting": "second compound 1 µM", "value": "< 5.00"}, {"measurement": "pIC50", "setting": "second compound 3.16 µM", "value": "< 5.00"}, {"measurement": "pIC50", "setting": "second compound 10 µM", "value": "< 5.00"}, {"measurement": "viability, T/C", "setting": "[1]", "value": 85, "unit": "%"}, {"measurement": "viability, T/C", "setting": "[2]", "value": 77.8, "unit": "%"}, {"measurement": "viability, T/C", "setting": "[3]", "value": 113, "unit": "%"}, {"measurement": "viability, T/C", "setting": "[4]", "value": 105, "unit": "%"}, {"measurement": "viability, T/C", "setting": "[5]", "value": 80.4, "unit": "%"}, {"measurement": "viability, T/C", "setting": "[6]", "value": 55.3, "unit": "%"}, {"measurement": "viability, T/C", "setting": "[7]", "value": 117, "unit": "%"}, {"measurement": "viability, T/C", "setting": "[8]", "value": 87.6, "unit": "%"}, {"measurement": "viability, T/C", "setting": "[9]", "value": 102, "unit": "%"}, {"measurement": "viability, T/C", "setting": "[10]", "value": 99.6, "unit": "%"}, {"measurement": "viability, T/C", "setting": "[11]", "value": 69.2, "unit": "%"}, {"measurement": "viability, T/C", "setting": "[12]", "value": 66.4, "unit": "%"}, {"measurement": "viability, T/C", "setting": "[13]", "value": 119, "unit": "%"}, {"measurement": "viability, T/C", "setting": "[14]", "value": 83.7, "unit": "%"}, {"measurement": "viability, T/C", "setting": "[15]", "value": 103, "unit": "%"}, {"measurement": "viability, T/C", "setting": "[16]", "value": 94.3, "unit": "%"}, {"measurement": "viability, T/C", "setting": "[17]", "value": 95.5, "unit": "%"}, {"measurement": "viability, T/C", "setting": "[18]", "value": 64.8, "unit": "%"}, {"measurement": "viability, T/C", "setting": "[19]", "value": 87.2, "unit": "%"}, {"measurement": "viability, T/C", "setting": "[20]", "value": 104, "unit": "%"}, {"measurement": "viability, T/C", "setting": "[21]", "value": 95.8, "unit": "%"}, {"measurement": "viability, T/C", "setting": "[22]", "value": 71.6, "unit": "%"}, {"measurement": "viability, T/C", "setting": "[23]", "value": 82.1, "unit": "%"}, {"measurement": "viability, T/C", "setting": "[24]", "value": 53.9, "unit": "%"}, {"measurement": "viability, T/C", "setting": "[25]", "value": 90, "unit": "%"}, {"measurement": "viability, T/C", "setting": "[26]", "value": 84.6, "unit": "%"}, {"measurement": "viability, T/C", "setting": "[27]", "value": 98.8, "unit": "%"}, {"measurement": "viability, T/C", "setting": "[28]", "value": 96.8, "unit": "%"}, {"measurement": "viability, T/C", "setting": "[29]", "value": 76.2, "unit": "%"}, {"measurement": "viability, T/C", "setting": "[30]", "value": 59, "unit": "%"}, {"measurement": "viability, T/C", "setting": "[31]", "value": 104, "unit": "%"}, {"measurement": "viability, T/C", "setting": "[32]", "value": 109, "unit": "%"}, {"measurement": "viability, T/C", "setting": "[33]", "value": 93.6, "unit": "%"}, {"measurement": "viability, T/C", "setting": "[34]", "value": 92.6, "unit": "%"}, {"measurement": "viability, T/C", "setting": "[35]", "value": 103, "unit": "%"}, {"measurement": "viability, T/C", "setting": "[36]", "value": 61.6, "unit": "%"}]}
